Measured values taken from publication PMC8279981, “A first-in-human, phase 1 study of the NEDD8 activating enzyme E1 inhibitor TAS4464 in patients with advanced solid tumors” (Investigational New Drugs, 2021).

Tested on: patients with advanced or metastatic solid tumors
Experiment: Phase 1 study: dose-limiting toxicities and maximum tolerated dose
Type: in vivo
Description: The highest non-severely toxic dose was derived from a dog toxicology study and was used to calculate a clinical starting dose of 10 mg/m^2, which corresponds to one-sixth of the human-equivalent dose. The maximum tolerated dose (MTD) of TAS4464 was investigated using an accelerated titration design. Initially, the starting TAS4464 dose was 10 mg/m^2 and was followed by an initial accelerated stage (i.e., weekly dosing phase) with 100% dose-step increments (level 1: 10 mg/m^2, level 2: 20 mg/m^2, level 3: 40 mg/m^2, and level 4: 56 mg/m^2). The 100% dose-step increments continued until the occurrence of a grade ≥ 2 drug-related toxicity within Cycle 1; dose-limiting toxicity (DLT) within Cycle 1; the next dose level reaching 60 mg/m^2; or any safety concerns. Thereafter, 40% increments were employed in the standard stage.
In the standard stage, three to six patients were to be enrolled, and the dose was escalated in 40% increments if none of the first three patients experienced a DLT. If one patient experienced a DLT, three additional patients were to be enrolled at the same dose level. If two of three or two of six patients experienced a DLT, the dose escalation was to be ceased. […] Additionally, DLT criteria regarding abnormal liver function and discontinuation criteria for study drug administration were added. The TAS4464 dose level for Day 1 of Cycle 1 was then set to 40 mg/m^2 (level 3).
The primary objective of the study was to investigate DLTs. Treatment-related adverse events (AEs) during the lead-in period and Cycle 1 were included in the assessment of DLT, which was defined as follows: 1) grade 4 neutropenia lasting >7 days or neutropenia requiring treatment; 2) grade 4 thrombocytopenia or thrombocytopenia requiring blood transfusion; 3) febrile neutropenia; 4) grade ≥ 3 nausea, vomiting, or diarrhea lasting >48 h and uncontrolled by treatment; 5) grade ≥ 3 aspartate aminotransferase (AST) increase or alanine aminotransferase (ALT) increase lasting ≥3 days; or 6) any other grade ≥ 3 non-hematologic toxicity.

CCOc1cccc(F)c1C#Cc1cn([C@@H]2O[C@H](CNS(N)(=O)=O)[C@@H](O)[C@H]2O)c2ncnc(N)c12 [TAS4464]
MTD (weekly dosing regimen): could not be determined
DLT incidence (grade 3 ALT increased and grade 3 AST increased) (weekly dosing with lead-in period, dose level 4 (56 mg/m^2)): 1/5
DLT incidence (grade 4 ALT increased) (weekly dosing, dose level 4 (56 mg/m^2), DLT-evaluable population): 1/5 and one of five patients
